Source: patent US6716582B2 (priority 2000, dated 2004)
Values joined by “and” are separate entries in the source; they are usually repeats but may differ in a detail not shown here. Equal values may be shown once.

How the values were obtained:
[1] = tested on: LuxArray 1.0 luxCDABE gene fusions; assay: LuxArray 1.0 solid phase nalidixic acid perturbation; type: cell-based, E. coli; conditions: for Solid expt NA/LB: NA 5 μg/ml; for fold upregulation, nalidixic acid treated to untreated: solid LuxArray, 5 μg/ml, 4 hours
Experimental: The E. coli strains were grown overnight at 37° C. in 40 μl LB medium supplemented with 100 μg/ml ampicillin in a set of sixteen 96-well dishes. These cultures were designated “printing plates” and were used as the cell source to manufacture the arrays. Porous membranes (Biodyne B, Nunc) were sterilized with UV illumination for 10 min then placed in contact with pre-warmed of solid LB growth media in a culture dish (OmniTray, Nunc). Printing of 4×4 subarrays was accomplished using a BioMek 2000 (Beckman Coulter) equipped with a High Density Replication Tool (HDRT). […] After sterilization, the pins are air-dried prior to the next transfer. The E. coli strains in the LuxArray were printed onto an approximately 8×12 cm membrane in two sets of triplicates.
Arrays were printed from fresh overnight cultures onto membranes on plates containing LB media. After 6 hr of growth at 37° C. membranes were moved to pre-warmed plates containing either LB media or LB media supplemented with 5 μg/ml nalidixic acid then replaced at 37° C. to continue growing. Images were collected for each array every two hours from 0-8 hr after relocation using a cooled CCD camera (Fluor Chem 8000: f0.85 lens, 2 min exposure, AlphaInnotech).
Spot intensity of each image was determined using ArrayVision™ (Imaging Research, Toronto, Canada) and the resultant pixel density measurements imported into a template with identifiers for each spot. The average signal for each of the triplicate spots was calculated. The background signal, which results from cross illumination of neighboring spots, was calculated by finding the median of the 24 spots containing a strain with the parental plasmid on each of the triplicate arrays and the calculating the average of the three medians. This background signal was calculated at each of the time points and subtracted from each measurement at the corresponding time point. All negative numbers were converted to zero.
Data normalization to account for inhibition of growth by nalidixic acid was accomplished by finding the sum of the averaged signals of each spot in the array for each treatment at each time point. A normalization factor (NF) was calculated as follows:
NF=Total array signal (time zero, LB control)/Total array signal (time x, condition y)
Each measurement was multiplied by NF to yield a normalized signal. Ratios the nalidixic acid treated spot to the corresponding control spot were calculated using the normalized data.
The ratios of the normalized data were compared for each of the […] spots resulting from independent cultures in the array. […] Twelve gene fusions were selected by these criteria (Table 15).

[2] = tested on: luxCDABE gene fusions; assay: retest of nalidixic acid upregulated fusions in liquid medium; type: cell-based, E. coli; conditions: of 7 conc tested
Experimental: Several concentrations of nalidixic acid were used because the differences in responses between liquid and solid growth were not known. Light production of 100 μl duplicate cultures at 37° C. was quantitated using a 96 well plate luminometer (Luminoskan Ascent, Labsystems). […] It should be noted that the liquid medium tests were not corrected for growth inhibition by nalidixic acid.

CCn1cc(C(=O)O)c(=O)c2ccc(C)nc21 [Nalidixic acid, nalidixic acid]
Solid expt NA/LB ([1]; dinG ybiB lux-a.pk0024.f5, t = 2 hr, duplicate spots): 2.5 and 3.4 | Solid expt NA/LB ([1]; dinG ybiB lux-a.pk0024.f5, t = 4 hr): 3.7 and 4.2 | Solid expt NA/LB ([1]; dinG ybiB lux-a.pk0024.f5, t = 6 hr): 3.5 and 3.1 | Solid expt NA/LB ([1]; dinG ybiB lux-a.pk0024.f5, t = 8 hr): 2.9 and 2.6 | Solid expt NA/LB ([1]; dinP lux-a.pk055.a3, t = 2 hr): 3.1 and 5.5 | Solid expt NA/LB ([1]; dinP lux-a.pk055.a3, t = 6 hr): 4.2 and 8.1 | Solid expt NA/LB ([1]; frvR frvX frvB frvA lux-a.pk046.e6, t = 2 hr): 2.8 and 2.1 | Solid expt NA/LB ([1]; frvR frvX frvB frvA lux-a.pk046.e6, t = 4 hr): 2.3 | Solid expt NA/LB ([1]; lpxA lpxB rnhB dnaE lux-a.pk061.c3, t = 2 hr): 3.5 and 2.7 | Solid expt NA/LB ([1]; lpxA lpxB rnhB dnaE lux-a.pk061.c3, t = 4 hr): 3.1 and 3.5 | Solid expt NA/LB ([1]; lpxA lpxB rnhB dnaE lux-a.pk061.c3, t = 6 hr): 2.8 and 3.0 | Solid expt NA/LB ([1]; lpxA lpxB rnhB dnaE lux-a.pk061.c3, t = 8 hr): 1.7 and 1.9 | Solid expt NA/LB ([1]; lux-a.pk0015.d6, t = 2 hr): 2.3 and 2.2 | Solid expt NA/LB ([1]; lux-a.pk0015.d6, t = 4 hr): 6.4 and 4.1 | Solid expt NA/LB ([1]; lux-a.pk0015.d6, t = 6 hr): 2.7 and 1.9 | Solid expt NA/LB ([1]; lux-a.pk0015.d6, t = 8 hr): 0.6 and 0.8 | Solid expt NA/LB ([1]; lux-a.pk0019.g1, t = 2 hr): 2.5 and 4.4 | Solid expt NA/LB ([1]; lux-a.pk0019.g1, t = 4 hr): 7.7 and 8.2 | Solid expt NA/LB ([1]; lux-a.pk0019.g1, t = 6 hr): 9.7 and 15.5 | Solid expt NA/LB ([1]; lux-a.pk0019.g1, t = 8 hr): 7.1 and 10.2 | Solid expt NA/LB ([1]; lux-a.pk033.c5, t = 2 hr): 3.7 and 2.1 | Solid expt NA/LB ([1]; lux-a.pk033.c5, t = 4 hr): 4.3 and 3.1 | Solid expt NA/LB ([1]; lux-a.pk033.c5, t = 6 hr): 3.2 and 3.3 | Solid expt NA/LB ([1]; lux-a.pk033.c5, t = 8 hr): 2.6 and 2.5 | Solid expt NA/LB ([1]; oraA lux-a.pk058.f5, t = 2 hr): 5.1 and 4.7 | Solid expt NA/LB ([1]; oraA lux-a.pk058.f5, t = 4 hr): 7.9 and 7.7 | Solid expt NA/LB ([1]; oraA lux-a.pk058.f5, t = 6 hr): 5.9 and 5.6 | Solid expt NA/LB ([1]; oraA lux-a.pk058.f5, t = 8 hr): 3.9 and 3.8 | fold upregulation, nalidixic acid treated to untreated ([1]; ruvA-lux, duplicate spots): 1.7 fold and 2.1 fold | Solid expt NA/LB ([1]; uvrA lux-a.pk0001.b6, t = 2 hr): 2.5 and 2.9 | Solid expt NA/LB ([1]; uvrA lux-a.pk0001.b6, t = 4 hr): 2.3 and 2.4 | Solid expt NA/LB ([1]; uvrA lux-a.pk0001.b6, t = 6 hr): 1.6 and 1.1 | Solid expt NA/LB ([1]; uvrA lux-a.pk0001.b6, t = 8 hr): 1.0 and 0.6 | fold upregulation, nalidixic acid treated to untreated ([1]; uvrD-lux, duplicate spots): 1.6 fold and 1.9 fold | Solid expt NA/LB ([1]; yaaF lux-a.pk031.e7, t = 2 hr): 2.1 and 2.0 | Solid expt NA/LB ([1]; yaaF lux-a.pk031.e7, t = 4 hr): 2.0 and 2.1 | Solid expt NA/LB ([1]; yaaF lux-a.pk031.e7, t = 6 hr): 1.3 and 1.8 | Solid expt NA/LB ([1]; yaaF lux-a.pk031.e7, t = 8 hr): 1.0 and 1.5 | Solid expt NA/LB ([1]; yfhJ fdx hscA yfhE lux-a.pk0019.g2, t = 2 hr): 2.1 | Solid expt NA/LB ([1]; yfhJ fdx hscA yfhE lux-a.pk0019.g2, t = 4 hr): 2.0 and 2.2 | Solid expt NA/LB ([1]; yfhJ fdx hscA yfhE lux-a.pk0019.g2, t = 6 hr): 1.7 and 1.5 | Solid expt NA/LB ([1]; yfhJ fdx hscA yfhE lux-a.pk0019.g2, t = 8 hr): 1.4 and 1.3 | Solid expt NA/LB ([1]; yigN lux-a.pk046.f11, t = 4 hr): 2.5 and 4.3 | # of conc with > 1.5 fold up ([2]; dinG ybiB lux-a.pk0024.f5): 6 | # of conc with > 1.5 fold up ([2]; dinP lux-a.pk055.a3): 7 | # of conc with > 1.5 fold up ([2]; frvR frvX frvB frvA lux-a.pk046.e6): 0 | # of conc with > 1.5 fold up ([2]; lpxA lpxB rnhB dnaE lux-a.pk061.c3): 3 | # of conc with > 1.5 fold up ([2]; lux-a.pk0015.d6): 6 | # of conc with > 1.5 fold up ([2]; lux-a.pk0019.g1): 6 | # of conc with > 1.5 fold up ([2]; lux-a.pk033.c5): 7 | # of conc with > 1.5 fold up ([2]; oraA lux-a.pk058.f5): 7 | # of conc with > 1.5 fold up ([2]; yaaF lux-a.pk031.e7): 3 | # of conc with > 1.5 fold up ([2]; yfhJ fdx hscA yfhE lux-a.pk0019.g2): 0 | # of conc with > 1.5 fold up ([2]; yigN lux-a.pk046.f11): 5
